Converted amounts (≈) assume the structure as drawn.
Key:
Assay type in all cases: functional
[1] = tested on: Pseudomonas aeruginosa; test: Antibacterial activity against Pseudomonas aeruginosa ATCC 27853 after 24 hrs by microdilution broth method; conditions: ATCC 27853, 24 h
[2] = tested on: Staphylococcus aureus; test: Antibacterial activity against Staphylococcus aureus ATCC 25923 after 24 hrs by microdilution broth method; conditions: ATCC 25923, 24 h
[3] = tested on: Escherichia coli; test: Antibacterial activity against Escherichia coli ATCC 25922 after 24 hrs by microdilution broth method; conditions: ATCC 25922, 24 h
[4] = tested on: Bacillus cereus; test: Antibacterial activity against Bacillus cereus ATCC 11778 after 24 hrs by microdilution broth method; conditions: ATCC 11778, 24 h

| SMILES | MBC [1] [µg/mL] | MIC [1] [µg/mL] | MBC [2] [µg/mL] | MIC [2] [µg/mL] | MBC [3] [µg/mL] | MIC [3] [µg/mL] | MBC [4] [µg/mL] | MIC [4] [µg/mL] |
| --- | --- | --- | --- | --- | --- | --- | --- | --- |
| COc1ccc(C(=O)/C=C/c2ccc(O)cc2)cc1 | 2000 (≈ 7.87 mM) | 1000 (≈ 3.93 mM) | 2000 (≈ 7.87 mM) | 2000 (≈ 7.87 mM) | 2000 (≈ 7.87 mM) | 1000 (≈ 3.93 mM) | 2000 (≈ 7.87 mM) | 2000 (≈ 7.87 mM) |
| O=C(CCc1ccccc1O)c1ccccc1 | 2000 (≈ 8.84 mM) | 1000 (≈ 4.42 mM) | 500 (≈ 2.21 mM) | 500 (≈ 2.21 mM) | 2000 (≈ 8.84 mM) | 2000 (≈ 8.84 mM) | 500 (≈ 2.21 mM) | 500 (≈ 2.21 mM) |
| COc1ccc(C(=O)/C=C/c2ccccc2O)c(O)c1CC=C(C)C | 2000 (≈ 5.91 mM) | 2000 (≈ 5.91 mM) | > 2000 | 2000 (≈ 5.91 mM) | 2000 (≈ 5.91 mM) | 2000 (≈ 5.91 mM) | 2000 (≈ 5.91 mM) | 2000 (≈ 5.91 mM) |
| COc1cc(OC)c(C(=O)CCc2ccc3c(c2)OCO3)cc1OC | 2000 (≈ 5.81 mM) | 2000 (≈ 5.81 mM) | 2000 (≈ 5.81 mM) | 2000 (≈ 5.81 mM) | 2000 (≈ 5.81 mM) | 2000 (≈ 5.81 mM) | 2000 (≈ 5.81 mM) | 2000 (≈ 5.81 mM) |
| COc1ccc(/C=C/C(=O)c2ccc(OC)c(CC=C(C)C)c2O)cc1 | 2000 (≈ 5.67 mM) | 2000 (≈ 5.67 mM) | 2000 (≈ 5.67 mM) | 2000 (≈ 5.67 mM) | > 2000 | 2000 (≈ 5.67 mM) | 2000 (≈ 5.67 mM) | 2000 (≈ 5.67 mM) |
| CC(C)=CCC/C(C)=C\Cc1c(O)ccc(C(=O)/C=C/c2ccc(O)cc2)c1O | 2000 (≈ 5.1 mM) | 1000 (≈ 2.55 mM) | 31.2 (≈ 0.0795 mM) | 31.2 (≈ 0.0795 mM) | 2000 (≈ 5.1 mM) | 1000 (≈ 2.55 mM) | 15.6 (≈ 0.0397 mM) | 15.6 (≈ 0.0397 mM) |
| COc1ccc(C(=O)/C=C/c2cccc(O)c2)c(O)c1CC=C(C)C | 2000 (≈ 5.91 mM) | 2000 (≈ 5.91 mM) | 2000 (≈ 5.91 mM) | 2000 (≈ 5.91 mM) | 2000 (≈ 5.91 mM) | 2000 (≈ 5.91 mM) | 1000 (≈ 2.96 mM) | 1000 (≈ 2.96 mM) |
| COc1ccc(C(=O)/C=C/c2ccc(O)cc2)c(O)c1CC=C(C)C | 2000 (≈ 5.91 mM) | 2000 (≈ 5.91 mM) | 7.8 (≈ 0.023 mM) | 7.8 (≈ 0.023 mM) | 2000 (≈ 5.91 mM) | 2000 (≈ 5.91 mM) | 3.9 (≈ 0.0115 mM) | 3.9 (≈ 0.0115 mM) |
| COc1cc(OC)c(OC)cc1/C=C/C(=O)c1cc(OC)c(OC)cc1OC | 2000 (≈ 5.15 mM) | 2000 (≈ 5.15 mM) | > 2000 | > 2000 | > 2000 | > 2000 | > 2000 | > 2000 |
| COc1ccc(/C=C/C(=O)c2c(OC)cc(OC)c(OC)c2OC(C)=O)cc1 | 2000 (≈ 5.18 mM) | 1000 (≈ 2.59 mM) | > 2000 | 2000 (≈ 5.18 mM) | > 2000 | 1000 (≈ 2.59 mM) | > 2000 | 2000 (≈ 5.18 mM) |
| COc1cc(OC)c(OC)cc1/C=C/C(=O)c1ccc(OC)c(OC)c1 | > 2000 | 2000 (≈ 5.58 mM) | > 2000 | 2000 (≈ 5.58 mM) | > 2000 | 1000 (≈ 2.79 mM) | > 2000 | 2000 (≈ 5.58 mM) |
| CC(C)=CCOc1ccc(C(=O)/C=C/c2ccc(O)cc2)c(O)c1 | 2000 (≈ 6.17 mM) | 2000 (≈ 6.17 mM) | 2000 (≈ 6.17 mM) | 2000 (≈ 6.17 mM) | > 2000 | 2000 (≈ 6.17 mM) | 1000 (≈ 3.08 mM) | 1000 (≈ 3.08 mM) |
| COc1ccc(/C=C/C(=O)c2cc(OC)c(OC)cc2O)cc1 | > 2000 | 1000 (≈ 3.18 mM) | > 2000 | 2000 (≈ 6.36 mM) | > 2000 | 2000 (≈ 6.36 mM) | > 2000 | 1000 (≈ 3.18 mM) |
| COc1cc(OC)c(C(=O)/C=C/c2ccc3c(c2)OCO3)c(OC)c1OC | 2000 (≈ 5.37 mM) | 2000 (≈ 5.37 mM) | > 2000 | > 2000 | 2000 (≈ 5.37 mM) | 2000 (≈ 5.37 mM) | > 2000 | 2000 (≈ 5.37 mM) |
| COc1ccc(C(=O)/C=C/c2c(OC)cc(OC)c(OC)c2OC)cc1OC | > 2000 | 2000 (≈ 5.15 mM) | > 2000 | 2000 (≈ 5.15 mM) | > 2000 | 2000 (≈ 5.15 mM) | 2000 (≈ 5.15 mM) | 2000 (≈ 5.15 mM) |
| COc1ccccc1/C=C/C(=O)c1cc(OC)c(OC)cc1OC | 2000 (≈ 6.09 mM) | 2000 (≈ 6.09 mM) | 1000 (≈ 3.05 mM) | 1000 (≈ 3.05 mM) | 2000 (≈ 6.09 mM) | 2000 (≈ 6.09 mM) | 250 (≈ 0.761 mM) | 250 (≈ 0.761 mM) |
| CC(C)=CCC/C(C)=C\Cc1c(O)ccc(C(=O)/C=C/c2ccc(O)c(CC=C(C)C)c2)c1O | 2000 (≈ 4.34 mM) | 1000 (≈ 2.17 mM) | 31.2 (≈ 0.0677 mM) | 31.2 (≈ 0.0677 mM) | 2000 (≈ 4.34 mM) | 1000 (≈ 2.17 mM) | 15.6 (≈ 0.0339 mM) | 15.6 (≈ 0.0339 mM) |
| COc1cc(C(=O)CCc2ccccc2)c(OC)c(CC=C(C)C)c1OC | 2000 (≈ 5.43 mM) | 2000 (≈ 5.43 mM) | > 2000 | 2000 (≈ 5.43 mM) | 2000 (≈ 5.43 mM) | 2000 (≈ 5.43 mM) | 2000 (≈ 5.43 mM) | 2000 (≈ 5.43 mM) |
| COc1ccc(C(=O)/C=C/c2ccccc2O)cc1OC | > 2000 | 1000 (≈ 3.52 mM) | 2000 (≈ 7.03 mM) | 1000 (≈ 3.52 mM) | 2000 (≈ 7.03 mM) | 1000 (≈ 3.52 mM) | 1000 (≈ 3.52 mM) | 1000 (≈ 3.52 mM) |
| COc1ccc(C(=O)/C=C/c2ccccc2)cc1OC [3',4'-DIMETHOXYCHALCONE] | 2000 (≈ 7.45 mM) | 1000 (≈ 3.73 mM) | 2000 (≈ 7.45 mM) | 1000 (≈ 3.73 mM) | 1000 (≈ 3.73 mM) | 2000 (≈ 7.45 mM) | 1000 (≈ 3.73 mM) | 1000 (≈ 3.73 mM) |
| COc1ccc(/C=C/C(=O)c2ccc(OC)cc2)cc1 [4,4'-DIMETHOXYCHALCONE] | 2000 (≈ 7.45 mM) | 2000 (≈ 7.45 mM) | > 2000 | > 2000 | > 2000 | > 2000 | > 2000 | > 2000 |
| CC1(C)C=Cc2cc(C(=O)/C=C/c3ccc(O)cc3)c(O)cc2O1 [4-HYDROXYISOLONCHOCARPIN] | > 2000 | 2000 (≈ 6.2 mM) | > 2000 | 1000 (≈ 3.1 mM) | > 2000 | 2000 (≈ 6.2 mM) | > 2000 | 1000 (≈ 3.1 mM) |
| CC(C)=CCOc1ccc(C(=O)/C=C/c2ccccc2)c(O)c1 [CORDOIN] | 2000 (≈ 6.49 mM) | 2000 (≈ 6.49 mM) | > 2000 | 2000 (≈ 6.49 mM) | > 2000 | 2000 (≈ 6.49 mM) | 2000 (≈ 6.49 mM) | 2000 (≈ 6.49 mM) |
| COc1ccc(C(=O)/C=C/c2ccccc2)c(O)c1CC=C(C)C [DERRICIN] | 2000 (≈ 6.2 mM) | 2000 (≈ 6.2 mM) | > 2000 | 2000 (≈ 6.2 mM) | 2000 (≈ 6.2 mM) | 2000 (≈ 6.2 mM) | 2000 (≈ 6.2 mM) | 2000 (≈ 6.2 mM) |
| CC(C)=CCc1c(O)ccc(C(=O)/C=C/c2ccc(O)cc2)c1O [ISOBAVACHALCONE] | 2000 (≈ 6.17 mM) | 1000 (≈ 3.08 mM) | 31.2 (≈ 0.0962 mM) | 31.2 (≈ 0.0962 mM) | 1000 (≈ 3.08 mM) | 1000 (≈ 3.08 mM) | 31.2 (≈ 0.0962 mM) | 31.2 (≈ 0.0962 mM) |
| CC(C)=CCc1c(O)ccc(C(=O)/C=C/c2ccccc2)c1O [ISOCORDOIN] | 1000 (≈ 3.24 mM) | 2000 (≈ 6.49 mM) | 2000 (≈ 6.49 mM) | 2000 (≈ 6.49 mM) | 2000 (≈ 6.49 mM) | 2000 (≈ 6.49 mM) | 2000 (≈ 6.49 mM) | 2000 (≈ 6.49 mM) |
| O=C(/C=C/c1ccc(O)cc1)c1ccc(O)cc1O [ISOLIQUIRITIGENIN] | 2000 (≈ 7.8 mM) | 2000 (≈ 7.8 mM) | 62.5 (≈ 0.244 mM) | 62.5 (≈ 0.244 mM) | 2000 (≈ 7.8 mM) | 2000 (≈ 7.8 mM) | 62.5 (≈ 0.244 mM) | 62.5 (≈ 0.244 mM) |
